Test results published in publication PMC7253423, “Quassinoid analogs with enhanced efficacy for treatment of hematologic malignancies target the PI3Kγ isoform” (Communications Biology, 2020).
Where “and” joins values, the source holds several entries; their conditions need not be identical. Equal entries are not always repeated.

How the values were obtained:
MOLM14 xenografts = test: In vivo tumorigenic assay using xenografts, tumor size; design: species or system NOD/SCID mice; conditions: for tumor size (Fig 5d&5e), individual mice: MOLM14 xenograft
Method in brief: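 Male NOD/SCID mice, six weeks old, received 1 × 10^7 MOLM14 cells subcutaneously in the left flank. Body weight and tumor size tracked before each injection over 2 weeks of treatment; excised tumor volume calculated as (a × b × b)/2.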

[1] = tested on: hematologic malignancies derived cell lines; test: Cell viability assay, panel of hematologic malignancy derived cell lines; type: cell-based, human; conditions: 100 nM, 72 h, lymphoma, leukemia and multiple myeloma cell lines (13 cell lines for analogs)
Method in brief: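 Cells seeded at 5000 per well, next day treated once with brusatol or analogues without media change. Viability read as CellTiter-Glo luminescence after 10 min at room temperature. Two independent experiments in duplicate.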

MOLM14 cells = test: Cell viability assay (CellTiter-Glo luminescence); type: cell-based; conditions: Homo sapiens
Procedure: (§1) 5000 cells as indicated were cultured in 96-well plate with 100 μl of media. […] After treatment, the cells were incubated with 100 μl buffer for 10 min at room temperature following the instructions of CellTiter-Glo kit (Promega, Madison, WI). Luminescence was detected using a multi-mode reader Cytation 5 (BioTek, Winooski, VT). […] Two independent experiments done in duplicates were performed.

Raji cells [2] = test: Western blot of PI3K/AKT signaling proteins; type: cell-based, human; conditions: Raji, 0, 50 nM, 100 nM; 0, 12 h, 24 h
Procedure: Western blot analyses were performed as previously described. Briefly, total cell lysates were separated by SDS-PAGE gel and transferred to nitrocellulose membrane. The membranes were blocked with 5% non-fat milk, probed with specific antibodies, and visualized using the Odyssey scanner (LiCor Inc., Lincoln, NE).

Raji cells [3] = test: Cell viability assay (CellTiter-Glo luminescence); type: cell-based, human; conditions: Homo sapiens
Procedure: as §1

SU-DHL-4 cells = test: Cell viability assay (CellTiter-Glo luminescence); type: cell-based, human; conditions: Homo sapiens, SU-DHL-4, 144 h
Procedure: as §1

[4] = Body weight of xenograft mice; type: in vivo, NOD/SCID mice; conditions: individual mice, Fig S3i, in g (unit assumed)
Procedure: Six-week-old male NOD.CB17-Prkdc^scid/J (NOD/SCID) mice (Jackson Labs, Bar Harbor, ME, USA) were used as the human-in-mouse xeno-transplantation model. MOLM14 cells (1 × 10^7 cells) were injected into the subcutaneous space on the left flank of the mice. […] Body weight and tumor size were monitored before every injection. After treatment for 2 weeks, the mice were euthanized by CO2 inhalation and the tumors were carefully excised. The tumor volume (mm^3) was measured and calculated using the formula (a × b × b)/2 (a, the largest diameter of two measurements; b, the smallest diameter of two measurements).

**Q.** Which results are given for `COC(=O)C12OCC34C(CC5C(C)=C(OC(=O)CNC(=O)OC(C)(C)C)C(=O)CC5(C)C3C(O)C1O)OC(=O)C(OC(=O)C=C(C)C)C24` (stereo not drawn) [#15]?
**A.** tumor size, inhibitory response (MOLM14 xenografts; 2 mg/kg intraperitoneally three times per week, 2 weeks, vs PBS control): strong and rapid inhibitory response; tumor size (Fig 5d&5e), individual mice (MOLM14 xenografts; 0d): 78.7304 and 93.4671 and 63.7324 and 75.8678 and 67.9005 and 67.4325; tumor size (Fig 5d&5e), individual mice (MOLM14 xenografts; 2d): 74.0736 and 114.773 and 91.676 and 153.055 and 77.875 and 106.489; tumor size (Fig 5d&5e), individual mice (MOLM14 xenografts; 4d): 75.6994 and 102.99 and 96.7244 and 124.841 and 62.8883 and 83.9808; tumor size (Fig 5d&5e), individual mice (MOLM14 xenografts; 6d): 103.463 and 91.5117 and 52.853 and 252.562 and 146.711 and 106.359; tumor size (Fig 5d&5e), individual mice (MOLM14 xenografts; 8d): 91.2302 and 210.386 and 191.93 and 161.391 and 92.482 and 87.983; tumor size (Fig 5d&5e), individual mice (MOLM14 xenografts; 10d): 119.98 and 398.721 and 249.328 and 242.913 and 135.818 and 159.498; tumor size (Fig 5d&5e), individual mice (MOLM14 xenografts; 12d): 236.553 and 558.264 and 472.199 and 496.746 and 222.458 and 242.483; inhibition of cell viability in panel of cell lines [1]: significantly inhibit; viability at 0.00244141 µM (MOLM14 cells; MOLM-14, read-out: relative cell viability (Fig 6e), replicates, MOLM14, Con. 0.00244141 μM, fraction of 0 μM control): 71.1%; viability at 0.0390625 µM (MOLM14 cells; MOLM-14, read-out: relative cell viability (Fig 6e), replicates, MOLM14, Con. 0.0390625 μM, fraction of 0 μM control): 15%; viability at 0.15625 µM (MOLM14 cells; MOLM-14, read-out: relative cell viability (Fig 6e), replicates, MOLM14, Con. 0.15625 μM, fraction of 0 μM control): 5.59%; viability at 0.625 µM (MOLM14 cells; MOLM-14, read-out: relative cell viability (Fig 6e), replicates, MOLM14, Con. 0.625 μM, fraction of 0 μM control): 3.26%; viability at 10 µM (MOLM14 cells; MOLM-14, read-out: relative cell viability (Fig 6e), replicates, MOLM14, Con. 10 μM, fraction of 0 μM control): 3.59%; suppression of AKT1, GSK3, and mTOR levels (Raji cells [2]): largely similar to Brusatol; IC50 (Raji cells [3]; 72 h): 92.9 nM; viability at 0.00244141 µM (Raji cells [3]; read-out: relative cell viability (Fig 6f), replicates, Raji, Con. 0.00244141 μM, fraction of 0 μM control): 120%; viability at 0.0390625 µM (Raji cells [3]; read-out: relative cell viability (Fig 6f), replicates, Raji, Con. 0.0390625 μM, fraction of 0 μM control): 63.6%; viability at 0.15625 µM (Raji cells [3]; read-out: relative cell viability (Fig 6f), replicates, Raji, Con. 0.15625 μM, fraction of 0 μM control): 25.8%; viability at 0.625 µM (Raji cells [3]; read-out: relative cell viability (Fig 6f), replicates, Raji, Con. 0.625 μM, fraction of 0 μM control): 10.3%; viability at 10 µM (Raji cells [3]; read-out: relative cell viability (Fig 6f), replicates, Raji, Con. 10 μM, fraction of 0 μM control): 5.59%; viability at 0.00244141 µM (SU-DHL-4 cells; read-out: relative cell viability (Fig 6d), replicates, SU-DHL-4, Con. 0.00244141 μM, fraction of 0 μM control): 90.7%; viability at 0.0390625 µM (SU-DHL-4 cells; read-out: relative cell viability (Fig 6d), replicates, SU-DHL-4, Con. 0.0390625 μM, fraction of 0 μM control): 35.2%; viability at 0.15625 µM (SU-DHL-4 cells; read-out: relative cell viability (Fig 6d), replicates, SU-DHL-4, Con. 0.15625 μM, fraction of 0 μM control): 13.9%; viability at 0.625 µM (SU-DHL-4 cells; read-out: relative cell viability (Fig 6d), replicates, SU-DHL-4, Con. 0.625 μM, fraction of 0 μM control): 7.7%; viability at 10 µM (SU-DHL-4 cells; read-out: relative cell viability (Fig 6d), replicates, SU-DHL-4, Con. 10 μM, fraction of 0 μM control): 4.89%; Body weight ([4]; 0d): 22.36 and 23.19 and 22.87 and 22.58 and 24.63; Body weight ([4]; 2d): 23.14 and 23.83 and 23.95 and 23.84 and 24.63; Body weight ([4]; 4d): 23.76 and 24.67 and 24.61 and 23.58 and 25.59; Body weight ([4]; 6d): 23.47 and 24.61 and 23.88; Body weight ([4]; 8d): 23.92 and 24.24 and 24.72 and 24.85 and 23.89 and 25.62; Body weight ([4]; 10d): 24.4 and 25.19 and 24.12; Body weight ([4]; 12d): 25.79 and 25.75 and 24.71 and 26.96
